Patent US9096581B2, “Fluoroethyl thiamine or salts thereof and application thereof in preparation of anticoccidial drugs” (GUANGZHOU ORIGMOL FEED-ADDITIVE CO., LTD, priority 2012, dated 2015)
Entries after “also recorded” stand apart in the source; their conditions may differ. Counter-ions that a name gives are not always drawn.

Tests used:
[1] = tested on: Eimeria tenella GD strains; experiment: Comparison with other anticoccidial drugs in chickens infected with Eimeria tenella GD (Embodiment 3); type: in vivo; parameters: oocyst value: scale not given here; details: for anticoccidial index (ACI) / number of oocysts in cecum / lesion value / survival rate / average weight gain / bloody feces scoring / oocyst value / relative weight gain rate: 125 ppm in feed; for number of oocysts in cecum / lesion value / average weight gain: 7th day; for lesion value: cecum, scale 0-40; for survival rate / average weight gain / bloody feces scoring: chickens; for bloody feces scoring: 5 days after infecting, score 0-4; for oocyst value: converted per Table 2; for relative weight gain rate: vs non-infected non-drug control
Excerpt: (§1) 1-day-old Lingnan yellow chickens, purchased from Poultry Research Unit, Bureau of Animal Husbandry, Guangdong Academy of Agricultural Sciences, bred under coccidium-free environment, and subjected to experiment after no coccidium oocyst is found in feces through microscopic examination when the chickens are 14 days old. Perfect compound feed for chickens: prepared by Huizhou Yuantai Feed Co. Ltd., and containing no antibacterial or anticoccidial additive.
Eimeria tenella GD strains, having no resistance to various anticoccidial drugs. Breeding and amplifying in one chicken before the experiment, collecting fresh oocysts, sporulating, and preserving at 4° C. for later use.
Weighing the 14-day-old experiment chickens one by one, rejecting emaciated chickens or overweighted chickens, selecting healthy chickens of which the individual body weight difference is within 20 g, and dividing into 6 groups with 30 chickens in each group. Groups 1 and 2 are respectively a non-drug-applied and non-coccidium-killed control group and a coccidium-infected and non-drug-applied control group, and Groups 3-6 are respectively added with different anticoccidial drugs according to Table 4. Feeding with feed containing different drugs on the day of experiment grouping, enabling the chickens to freely take in the feed, and feeding the chickens until the experiment ends.
(§2) Except the non-coccidium-infected and non-drug-applied control group, giving each experiment chicken in each experiment group with 2.5×10^5 eimeria tenella sporulated oocysts via the crop on next day of the grouping day. During experiment, observing and recording the spirit, appetite, bloody feces situation, death count and the like of the chickens every day. Performing bloody feces scoring on the chickens in each group 5 days after infecting. On the 7th day, respectively weighing all the chickens in each group, then autopsying them, observing cecum lesions and counting the oocysts in the cecum.
The evaluation standard is the same with Embodiment 2.

[2] = tested on: Eimeria tenella GD strains; experiment: Anticoccidial dose research in chickens infected with Eimeria tenella GD (Embodiment 2); type: in vivo; parameters: oocyst value: scale not given here; details: for number of oocysts in cecum / average weight gain: 7th day; for lesion value: cecum, 7 days after infecting, scale 0-40; for survival rate / average weight gain / bloody feces scoring: chickens; for bloody feces scoring: 5 days after infecting, score 0-4; for oocyst value: converted per Table 2; for relative weight gain rate: vs non-infected non-drug control
Excerpt: as §1
Eimeria tenella GD strains, having no resistance to various anticoccidial drugs. Breeding and amplifying in chickens before the experiment, collecting fresh oocysts, sporulating, and preserving at 4° C. for later use.
Weighing the 14-day-old experiment chickens one by one, rejecting emaciated or overweighted chickens, selecting healthy chickens of which the individual body weight difference is within 20 g, and dividing to 9 groups with 20 chickens in each group. Groups 1 and 2 are respectively a non-drug-applied and non-coccidium-killed control group and a coccidium-infected and non-drug-applied control group, and Groups 3-9 are experiment groups applied with different doses of the fluoroethyl thiamine hydrochloride according to Table 1. Adding different doses of drugs to feeds and mixing uniformly on the day of experiment grouping, enabling the chickens to freely take in the feeds, and feeding the chickens until the experiment ends.
as §2, with “non-drug-applied control group (Group 1), giving each” for “non-drug-applied control group, giving each”, “crop on the next day” for “crop on next day”
2.3.1 Bloody feces scoring: according to the method in the references: 0 point, no bloody feces, 1 point, less than 25% of bloody feces; 2 points, 25%-50% of bloody feces; 3 points, 50%-75% of bloody feces; 4 points, more than 75% of bloody feces.
2.3.2 Weight gain: respectively weighing each chicken when the experiment starts and ends, and calculating the average weight gain and relative weight gain rate. The relative weight gain rate=(the average weight gain in the experiment groups/the average weight gain in the non-infected and non-drug-applied control group)×100%.
2.3.3 Survival rate: recording the number of dead chickens of each group, autopsying to determine the death cause, and calculating the survival rate. The survival rate=(the total number of the chickens in the experiment groups−the number of the chickens dying of coccidium infection during the experiment)/the total number of the chickens in the experiment groups×100%.
2.3.4 Lesion standard: killing the chickens 7 days after infecting, performing cecum lesion scoring according to the lesion scoring of Johnson and Reid (1970), and converting lesion points to lesion values.
lesion scoring (taking the serious side if the two sides of the cecum are inconsistent in lesion): 0 point, no macroscopic lesion; 1 point, a small amount of scattered petechiae on the cecum wall, no incrassation on the cecum wall, normal contents; 2 points, a large amount of lesion, obviously bloody contents in the cecum, slight incrassation on the cecum wall, normal contents; 3 points, a large a mount of blood or intestinal core (blood clot or gray caseous banana-shaped lumps) in the cecum, obvious incrassation on the cecum wall, a small amount of feces in the cecum; 4 points, cecum swelling caused by filling of a large amount of blood or intestinal core with or without feces in the intestinal core. Recording the dead chicken lesion as 4 points as well. […]

In the case of `CCCc1ncc(C[n+]2ccccc2C)c(N)n1` [amprolium, Amprolium, reference compound], the “anticoccidial index (ACI)” value [1] is reported as 191.2, the “number of oocysts in cecum” value [1] is reported as 0.566 ×10^6/chicken and the lesion value [1] is reported as 4. It also gave a survival rate [1] of 100%, an average weight gain [1] of 166.3 g/chicken and a bloody feces scoring [1] of 0. The oocyst value [1] was 1 and the “relative weight gain rate” value [1] was 96.2%.
In the case of `CCc1ncc(C[n+]2csc(CCF)c2C)c(N)n1` [fluoroethyl thiamine hydrochloride, 3-[(4-amino-2-ethyl-5-pyrimidyl)-methylene]-5-(2-fluoroethyl)-4-methyl thiazole chloride hydrochloride], the “anticoccidial index (ACI)” value ([2]; 10 ppm in feed) is reported as 136.7, the “number of oocysts in cecum” value ([2]; 10 ppm in feed) is reported as 2.965 ×10^6/chicken and the lesion value ([2]; 10 ppm in feed) is reported as 24.5. It also gave a survival rate ([2]; 10 ppm in feed) of 90%, an average weight gain ([2]; 10 ppm in feed) of 135.7 g/chicken and a bloody feces scoring ([2]; 10 ppm in feed) of 2. For the same compound, the oocyst value ([2]; 10 ppm in feed) was 10, the “relative weight gain rate” value ([2]; 10 ppm in feed) was 81.2% and the “anticoccidial index (ACI)” value ([2]; 25 ppm in feed) was 144.6. The “number of oocysts in cecum” value ([2]; 25 ppm in feed) was 2.325 ×10^6/chicken, the lesion value ([2]; 25 ppm in feed) was 18.8 and the survival rate ([2]; 25 ppm in feed) was 90%. It also gave an average weight gain ([2]; 25 ppm in feed) of 139.5 g/chicken, a bloody feces scoring ([2]; 25 ppm in feed) of 2 and an oocyst value ([2]; 25 ppm in feed) of 10. The “relative weight gain rate” value ([2]; 25 ppm in feed) was 83.4%, the “anticoccidial index (ACI)” value ([2]; 50 ppm in feed) was 165.5 and the “drug efficiency level judged from the anticoccidial index” value ([2]; 50 ppm in feed) was “intermediate-efficiency anticoccidial drugs (intermediate-efficiency anticoccidial drugs if 160≦ACI<180)”. The “number of oocysts in cecum” value ([2]; 50 ppm in feed) was 3.65 ×10^6/chicken, the lesion value ([2]; 50 ppm in feed) was 11.2 and the survival rate ([2]; 50 ppm in feed) was 100%. For the same compound, the average weight gain ([2]; 50 ppm in feed) was 144.9 g/chicken, the bloody feces scoring ([2]; 50 ppm in feed) was 1 and the oocyst value ([2]; 50 ppm in feed) was 10. For the same compound, the “relative weight gain rate” value ([2]; 50 ppm in feed) was 86.7%, the “anticoccidial index (ACI)” value ([2]; 75 ppm in feed) was 176.4 and the “drug efficiency level judged from the anticoccidial index” value ([2]; 75 ppm in feed) was “intermediate-efficiency anticoccidial drugs (intermediate-efficiency anticoccidial drugs if 160≦ACI<180)”. For the same compound, the “number of oocysts in cecum” value ([2]; 75 ppm in feed) was 2.15 ×10^6/chicken, the lesion value ([2]; 75 ppm in feed) was 8.5 and the survival rate ([2]; 75 ppm in feed) was 100%. For the same compound, the average weight gain ([2]; 75 ppm in feed) was 158.7 g/chicken, the bloody feces scoring ([2]; 75 ppm in feed) was 0 and the oocyst value ([2]; 75 ppm in feed) was 10. The “relative weight gain rate” value ([2]; 75 ppm in feed) was 94.9%, the “anticoccidial index (ACI)” value ([2]; 100 ppm in feed) was 195.9 and the “drug efficiency level judged from the anticoccidial index” value ([2]; 100 ppm in feed) was “high-efficiency anticoccidial drugs (high-efficiency anticoccidial drugs if ACI≧180)”. The “number of oocysts in cecum” value ([2]; 100 ppm in feed) was 0.47 ×10^6/chicken, the lesion value ([2]; 100 ppm in feed) was 0 and the survival rate ([2]; 100 ppm in feed) was 100%. It also gave an average weight gain ([2]; 100 ppm in feed) of 162.0 g/chicken, a bloody feces scoring ([2]; 100 ppm in feed) of 0 and an oocyst value ([2]; 100 ppm in feed) of 1. The “relative weight gain rate” value ([2]; 100 ppm in feed) was 96.9%, the “anticoccidial index (ACI)” value ([2]; 150 ppm in feed) was 201.4 and the “drug efficiency level judged from the anticoccidial index” value ([2]; 150 ppm in feed) was “high-efficiency anticoccidial drugs (high-efficiency anticoccidial drugs if ACI≧180)”. For the same compound, the “number of oocysts in cecum” value ([2]; 150 ppm in feed) was 0.16 ×10^6/chicken, the lesion value ([2]; 150 ppm in feed) was 0 and the survival rate ([2]; 150 ppm in feed) was 100%. For the same compound, the average weight gain ([2]; 150 ppm in feed) was 171.2 g/chicken, the bloody feces scoring ([2]; 150 ppm in feed) was 0 and the oocyst value ([2]; 150 ppm in feed) was 1. The “relative weight gain rate” value ([2]; 150 ppm in feed) was 102.4%, the “anticoccidial index (ACI)” value ([2]; 200 ppm in feed) was 200.8 and the “drug efficiency level judged from the anticoccidial index” value ([2]; 200 ppm in feed) was “high-efficiency anticoccidial drugs (high-efficiency anticoccidial drugs if ACI≧180)”. The “number of oocysts in cecum” value ([2]; 200 ppm in feed) was 0 ×10^6/chicken, the lesion value ([2]; 200 ppm in feed) was 0 and the survival rate ([2]; 200 ppm in feed) was 100%. It also gave an average weight gain ([2]; 200 ppm in feed) of 168.5 g/chicken, a bloody feces scoring ([2]; 200 ppm in feed) of 0 and an oocyst value ([2]; 200 ppm in feed) of 0. The “relative weight gain rate” value ([2]; 200 ppm in feed) was 100.8%, the “anticoccidial index (ACI)” value [1] was 201.6 and the “comparison with the other anticoccidial drugs” value ([1]; 125 ppm in feed (maduramicin 5 ppm), hydrochloride) was “superior to amprolium and maduramicin in lesion and oocyst value; also recorded: superior to nicarbazin in weight gain”. For the same compound, the “number of oocysts in cecum” value [1] was 0 ×10^6/chicken, the lesion value [1] was 0 and the survival rate [1] was 100%. It also gave an average weight gain [1] of 175.6 g/chicken, a bloody feces scoring [1] of 0 and an oocyst value [1] of 0. For the same compound, the “relative weight gain rate” value [1] was 101.6%.
